Test results as given in US10112935B2, “Indazolyl thiadiazolamines and related compounds for inhibition of Rho-associated protein kinase and the treatment of disease” (Lycera Corporation, priority 2015, dated 2018).

Key:
[1] = molecular target: GST-tagged human ROCK2 catalytic domain 1-553 (Homo sapiens (Human), UniProt O75116); assay: Inhibition of Rho-associated protein kinase isoform 2 (LANCE Ultra ULight-CREBtide FRET kinase assay); assay type: biochemical; details: for IC50: 30 μM was the highest concentration analyzed; for Selectivity for ROCK2 over ROCK1 (IC50 ROCK1 / IC50 ROCK2): selectivity ROCK2 vs ROCK1
Method: (§1) Exemplary compounds were tested for ability to inhibit Rho-associated protein kinase isoform 1 (ROCK1) and Rho-associated protein kinase isoform 2 (ROCK2). Assay procedures and results are described below.
(§2) Protein constructs were purified from a baculovirus expression system. The peptide substrate was fluorescent LANCE® Ultra ULight-CREBtide: […] (PerkinElmer, # TRF0107-D). […] After a 90 minute incubation at room temperature on a shaker table, the kinase reaction was stopped by addition of 10 mM EDTA, and phosphorylation of the substrate was detected by adding 1 nM LANCE® Ultra Europium-anti-phospho-CREB (ser133) antibody (PerkinElmer, # TRF0200-D) and incubating for 60 minutes on a shaker at room temperature. The flurorescence resonance energy transfer (FRET) signals were read and analyzed on an Envision™ 2103 Multilabel Reader (Perkin Elmer).

[2] = molecular target: GST-tagged human ROCK1 catalytic domain 1-477 (Homo sapiens (Human), UniProt Q13464); assay: Inhibition of Rho-associated protein kinase isoform 1 (LANCE Ultra ULight-CREBtide FRET kinase assay); assay type: biochemical; details: 30 μM was the highest concentration analyzed
Method: as §1, §2

Chain of GST-tagged human ROCK1 catalytic domain 1-477 (Q13464 1-477): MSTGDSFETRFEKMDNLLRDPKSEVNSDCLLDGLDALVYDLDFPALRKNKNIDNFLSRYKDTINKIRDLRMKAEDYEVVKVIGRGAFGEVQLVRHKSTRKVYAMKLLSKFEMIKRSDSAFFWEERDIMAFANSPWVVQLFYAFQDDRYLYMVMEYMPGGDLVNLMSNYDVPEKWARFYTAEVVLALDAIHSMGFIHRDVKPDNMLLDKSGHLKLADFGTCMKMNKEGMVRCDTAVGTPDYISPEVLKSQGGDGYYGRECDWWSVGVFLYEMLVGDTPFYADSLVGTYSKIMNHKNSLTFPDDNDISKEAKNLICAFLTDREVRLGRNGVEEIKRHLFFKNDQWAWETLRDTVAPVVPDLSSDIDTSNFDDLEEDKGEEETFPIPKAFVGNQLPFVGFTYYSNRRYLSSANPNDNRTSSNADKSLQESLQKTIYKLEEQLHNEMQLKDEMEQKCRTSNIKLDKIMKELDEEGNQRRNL
Chain of GST-tagged human ROCK2 catalytic domain 1-553 (O75116 1-553): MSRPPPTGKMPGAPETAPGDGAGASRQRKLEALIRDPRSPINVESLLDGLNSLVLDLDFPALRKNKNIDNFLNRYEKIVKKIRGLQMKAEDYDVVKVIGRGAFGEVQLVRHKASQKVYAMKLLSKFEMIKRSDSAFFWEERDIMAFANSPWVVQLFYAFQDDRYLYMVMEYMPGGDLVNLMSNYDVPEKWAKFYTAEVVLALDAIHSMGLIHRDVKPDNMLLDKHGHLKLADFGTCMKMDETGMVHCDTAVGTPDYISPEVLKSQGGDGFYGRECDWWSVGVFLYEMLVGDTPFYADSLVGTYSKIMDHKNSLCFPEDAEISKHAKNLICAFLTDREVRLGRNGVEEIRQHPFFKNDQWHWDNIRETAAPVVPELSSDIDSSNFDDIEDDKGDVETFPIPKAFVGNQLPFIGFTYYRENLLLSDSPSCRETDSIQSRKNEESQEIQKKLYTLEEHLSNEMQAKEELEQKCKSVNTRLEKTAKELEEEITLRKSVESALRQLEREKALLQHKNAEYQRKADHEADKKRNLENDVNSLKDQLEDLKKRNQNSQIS

## CC(C(=O)Nc1cc(-c2nnc(Nc3ccc4[nH]ncc4c3Cl)s2)ccn1)c1ccc(F)cc1 (centres unmarked) [Example 34, N-(4-(5-((4-Chloro-1H-indazol-5-yl)amino)-1,3,4-thiadiazol-2-yl)pyridin-2-yl)-2-(4-fluorophenyl)propanamide]
[1]
  IC50: < 1 µM
  Selectivity for ROCK2 over ROCK1 (IC50 ROCK1 / IC50 ROCK2): >50
[2]
  IC50: < 1 µM

## C[C@H](N)C(=O)Nc1cccc(-c2nnc(Nc3ccc4[nH]ncc4c3Cl)s2)c1 [Example 35AA]
[1]
  IC50: < 1 µM
  Selectivity for ROCK2 over ROCK1 (IC50 ROCK1 / IC50 ROCK2): >5
[2]
  IC50: 1 to 15 µM

## O=C(Nc1cccc(-c2nnc(Nc3ccc4[nH]ncc4c3Cl)s2)c1)C1CCNCC1 [Example 35AC]
[2]
  IC50: 1 to 15 µM

## O=C(Nc1cccc(-c2nnc(Nc3ccc4[nH]ncc4c3Cl)s2)c1)C1CNC1 [Example 35AD]
[1]
  IC50: < 1 µM
  Selectivity for ROCK2 over ROCK1 (IC50 ROCK1 / IC50 ROCK2): >5
[2]
  IC50: 1 to 15 µM

## CC(=O)Nc1cc(-c2nnc(Nc3ccc4[nH]ncc4c3Cl)s2)ccn1.O=C(O)C(F)(F)F [Example 35AE]
[1]
  IC50: < 1 µM
  Selectivity for ROCK2 over ROCK1 (IC50 ROCK1 / IC50 ROCK2): <5
[2]
  IC50: < 1 µM

## CC(=O)Cc1cccc(-c2nnc(Nc3ccc4[nH]ncc4c3Cl)s2)c1 [Example 35AF]
[1]
  IC50: < 1 µM
  Selectivity for ROCK2 over ROCK1 (IC50 ROCK1 / IC50 ROCK2): >5
[2]
  IC50: 1 to 15 µM

## CC(=O)Oc1cccc(-c2nnc(Nc3ccc4[nH]ncc4c3Cl)s2)c1 [Example 35AG]
[1]
  IC50: < 1 µM
  Selectivity for ROCK2 over ROCK1 (IC50 ROCK1 / IC50 ROCK2): >100
[2]
  IC50: > 30 µM

## CC(C(=O)Nc1cccc(-c2nnc(Nc3ccc4[nH]ncc4c3Cl)s2)c1)c1ccccn1 (centres unmarked) [Example 35AH]
[1]
  IC50: < 1 µM
  Selectivity for ROCK2 over ROCK1 (IC50 ROCK1 / IC50 ROCK2): <5
[2]
  IC50: < 1 µM

## O=C(Cc1cccc(C(F)(F)F)n1)Nc1cccc(-c2nnc(Nc3ccc4[nH]ncc4c3Cl)s2)c1 [Example 35AI]
[1]
  IC50: < 1 µM
  Selectivity for ROCK2 over ROCK1 (IC50 ROCK1 / IC50 ROCK2): >5
[2]
  IC50: < 1 µM

## OC1(c2cccc(-c3nnc(Nc4ccc5[nH]ncc5c4Cl)s3)c2)COC1 [Example 35AJ]
[1]
  IC50: < 1 µM
  Selectivity for ROCK2 over ROCK1 (IC50 ROCK1 / IC50 ROCK2): >75
[2]
  IC50: > 30 µM

## N[C@@H](Cc1ccc(O)cc1)C(=O)Nc1cccc(-c2nnc(Nc3ccc4[nH]ncc4c3Cl)s2)c1.O=C(O)C(F)(F)F [Example 35AK]
[1]
  IC50: < 1 µM
  Selectivity for ROCK2 over ROCK1 (IC50 ROCK1 / IC50 ROCK2): <5
[2]
  IC50: < 1 µM

## CC(=O)Nc1cccc(-c2nnc(Nc3ccc4[nH]ncc4c3C(F)(F)F)s2)c1 [Example 35AL]
[1]
  IC50: < 1 µM
  Selectivity for ROCK2 over ROCK1 (IC50 ROCK1 / IC50 ROCK2): >5
[2]
  IC50: 1 to 15 µM

## CC(=O)c1cccc(-c2nnc(Nc3ccc4[nH]ncc4c3Cl)s2)c1 [Example 35AM]
[1]
  IC50: < 1 µM
  Selectivity for ROCK2 over ROCK1 (IC50 ROCK1 / IC50 ROCK2): >100
[2]
  IC50: > 30 µM

## Cc1ccc(CC(=O)Nc2cccc(-c3nnc(Nc4ccc5[nH]ncc5c4Cl)s3)c2)nc1 [Example 35AO]
[1]
  IC50: < 1 µM
  Selectivity for ROCK2 over ROCK1 (IC50 ROCK1 / IC50 ROCK2): >100
[2]
  IC50: > 30 µM

## O=C(Cc1ncccn1)Nc1cccc(-c2nnc(Nc3ccc4[nH]ncc4c3Cl)s2)c1 [Example 35AP]
[1]
  IC50: < 1 µM
  Selectivity for ROCK2 over ROCK1 (IC50 ROCK1 / IC50 ROCK2): <5
[2]
  IC50: < 1 µM

## CC(C)(CO)NC(=O)c1cccc(-c2nnc(Nc3ccc4[nH]ncc4c3Cl)s2)c1 [Example 35AR]
[1]
  IC50: < 1 µM
  Selectivity for ROCK2 over ROCK1 (IC50 ROCK1 / IC50 ROCK2): >5
[2]
  IC50: 1 to 15 µM

## O=C(Nc1cccc(-c2nnc(Nc3ccc4[nH]ncc4c3Cl)s2)c1)c1cc(O)cc(O)c1 [Example 35AS]
[1]
  IC50: < 1 µM
  Selectivity for ROCK2 over ROCK1 (IC50 ROCK1 / IC50 ROCK2): >50
[2]
  IC50: < 1 µM

## COc1ncc(C(=O)Nc2cccc(-c3nnc(Nc4ccc5[nH]ncc5c4Cl)s3)c2)cn1.O=C(O)C(F)(F)F [Example 35AU]
[1]
  IC50: < 1 µM
  Selectivity for ROCK2 over ROCK1 (IC50 ROCK1 / IC50 ROCK2): >100
[2]
  IC50: > 30 µM

## N[C@@H](Cc1ccccc1)C(=O)Nc1cccc(-c2nnc(Nc3ccc4[nH]ncc4c3Cl)s2)c1 [Example 35AV]
[1]
  IC50: < 1 µM
  Selectivity for ROCK2 over ROCK1 (IC50 ROCK1 / IC50 ROCK2): >5
[2]
  IC50: 1 to 15 µM

## O=C(Nc1cccc(-c2nnc(Nc3ccc4[nH]ncc4c3Cl)s2)c1)c1ccc(F)cc1 [Example 35AW]
[1]
  IC50: < 1 µM
  Selectivity for ROCK2 over ROCK1 (IC50 ROCK1 / IC50 ROCK2): >5
[2]
  IC50: < 1 µM

## O=C(O)Cn1cc(C(=O)Nc2cc(F)c(F)c(-c3nnc(Nc4ccc5[nH]ncc5c4)s3)c2)cn1 [Example 35AY]
[1]
  IC50: < 1 µM
  Selectivity for ROCK2 over ROCK1 (IC50 ROCK1 / IC50 ROCK2): >75
[2]
  IC50: > 30 µM

## CC(=O)N(C)c1cccc(-c2nnc(Nc3ccc4[nH]ncc4c3Cl)s2)c1 [Example 35AZ]
[1]
  IC50: 1 to 15 µM
  Selectivity for ROCK2 over ROCK1 (IC50 ROCK1 / IC50 ROCK2): >5
[2]
  IC50: > 30 µM

## O=C(Nc1cc(-c2nnc(Nc3ccc4[nH]ncc4c3Cl)s2)ccn1)N1CCOCC1 [Example 35A]
[1]
  IC50: < 1 µM
  Selectivity for ROCK2 over ROCK1 (IC50 ROCK1 / IC50 ROCK2): >5
[2]
  IC50: < 1 µM

## CC(C)C[C@H](N)C(=O)Nc1cccc(-c2nnc(Nc3ccc4[nH]ncc4c3Cl)s2)c1 [Example 35BA]
[1]
  IC50: < 1 µM
  Selectivity for ROCK2 over ROCK1 (IC50 ROCK1 / IC50 ROCK2): >5
[2]
  IC50: < 1 µM

## CC(=O)Nc1cc(F)c(F)c(-c2nnc(Nc3ccc4[nH]ncc4c3Cl)s2)c1.O=C(O)C(F)(F)F [Example 35BB]
[1]
  IC50: < 1 µM
  Selectivity for ROCK2 over ROCK1 (IC50 ROCK1 / IC50 ROCK2): >100
[2]
  IC50: > 30 µM

## CC(=O)Nc1cccc(-c2nnc(N(C)c3ccc4[nH]ncc4c3Cl)s2)c1 [Example 35BC]
[1]
  IC50: < 1 µM
  Selectivity for ROCK2 over ROCK1 (IC50 ROCK1 / IC50 ROCK2): >75
[2]
  IC50: > 30 µM

## O=C(Cc1ncc[nH]1)Nc1cccc(-c2nnc(Nc3ccc4[nH]ncc4c3Cl)s2)c1 [Example 35BD]
[1]
  IC50: < 1 µM
  Selectivity for ROCK2 over ROCK1 (IC50 ROCK1 / IC50 ROCK2): >100
[2]
  IC50: > 30 µM

## CCOc1ccc(CC(=O)Nc2cccc(-c3nnc(Nc4ccc5[nH]ncc5c4Cl)s3)c2)cc1 [Example 35BE]
[1]
  IC50: < 1 µM
  Selectivity for ROCK2 over ROCK1 (IC50 ROCK1 / IC50 ROCK2): >100
[2]
  IC50: > 30 µM

## NC(Cc1ccc(Cl)cc1)C(=O)Nc1cccc(-c2nnc(Nc3ccc4[nH]ncc4c3Cl)s2)c1 (centres unmarked) [Example 35BF]
[1]
  IC50: < 1 µM
  Selectivity for ROCK2 over ROCK1 (IC50 ROCK1 / IC50 ROCK2): >5
[2]
  IC50: 1 to 15 µM

## O=C(Cc1ccon1)Nc1cccc(-c2nnc(Nc3ccc4[nH]ncc4c3Cl)s2)c1 [Example 35BG]
[1]
  IC50: < 1 µM
  Selectivity for ROCK2 over ROCK1 (IC50 ROCK1 / IC50 ROCK2): >100
[2]
  IC50: > 30 µM

## Cn1cc(CC(=O)Nc2cccc(-c3nnc(Nc4ccc5[nH]ncc5c4Cl)s3)c2)cn1 [Example 35BH]
[1]
  IC50: < 1 µM
  Selectivity for ROCK2 over ROCK1 (IC50 ROCK1 / IC50 ROCK2): >100
[2]
  IC50: < 1 µM

## Cc1cnn(CC(=O)Nc2cccc(-c3nnc(Nc4ccc5[nH]ncc5c4Cl)s3)c2)c1 [Example 35BI]
[1]
  IC50: < 1 µM
  Selectivity for ROCK2 over ROCK1 (IC50 ROCK1 / IC50 ROCK2): >100
[2]
  IC50: 1 to 15 µM

## N#Cc1ccc(CC(=O)Nc2cccc(-c3nnc(Nc4ccc5[nH]ncc5c4Cl)s3)c2)cc1 [Example 35BK]
[1]
  IC50: < 1 µM
  Selectivity for ROCK2 over ROCK1 (IC50 ROCK1 / IC50 ROCK2): >100
[2]
  IC50: > 30 µM

## Cn1ccnc1CC(=O)Nc1cccc(-c2nnc(Nc3ccc4[nH]ncc4c3Cl)s2)c1 [Example 35BL]
[1]
  IC50: < 1 µM
  Selectivity for ROCK2 over ROCK1 (IC50 ROCK1 / IC50 ROCK2): >100
[2]
  IC50: > 30 µM

## O=C(Cc1ccccn1)Nc1cccc(-c2nnc(Nc3ccc4[nH]ncc4c3Cl)s2)c1 [Example 35BM]
[1]
  IC50: < 1 µM
  Selectivity for ROCK2 over ROCK1 (IC50 ROCK1 / IC50 ROCK2): >100
[2]
  IC50: > 30 µM

## Cc1cc(CC(=O)Nc2cccc(-c3nnc(Nc4ccc5[nH]ncc5c4Cl)s3)c2)on1 [Example 35BN]
[1]
  IC50: < 1 µM
  Selectivity for ROCK2 over ROCK1 (IC50 ROCK1 / IC50 ROCK2): >5
[2]
  IC50: < 1 µM

## CC1(C(=O)Nc2cccc(-c3nnc(Nc4ccc5[nH]ncc5c4Cl)s3)c2)CCCCC1 [Example 35L]
[2]
  IC50: 1 to 15 µM

## CN1CC(C(=O)Nc2cccc(-c3nnc(Nc4ccc5[nH]ncc5c4Cl)s3)c2)C1 [Example 35X]
[2]
  IC50: 1 to 15 µM

## CCOC(=O)N(c1nnc(-c2cccc(NC(=O)Cc3ccc(F)cc3)c2)s1)c1ccc2[nH]ncc2c1Cl [Example 54A]
[1]
  IC50: 1 to 15 µM

## Clc1c(Nc2nnc(-c3cccc4c3ncn4CCN3CCCC3)s2)ccc2[nH]ncc12 [Example 56A]
[1]
  IC50: 1 to 15 µM
